The source of these data is ChEMBL document CHEMBL1136858, “Synthesis of hydroxycoumarins and hydroxybenzo[f]- or [h]coumarins as lipid peroxidation inhibitors” (Bioorg Med Chem Lett, 2009).

The source made the active and inactive calls. The rule behind the calls is not given here.

A short description of assay [1]: Antioxidant activity assessed as superoxide radical scavenging activity at 100 uM by nitroblue tetrazolium method. The assay is classed as functional.
For assay [2], the system named is Radical scavenging activity. Briefly: Antioxidant activity assessed as DPPH radical scavenging activity at 0.05 mM after 20 mins. The class given is functional. (Loss of DPPH colour is used to gauge radical scavenging.)
Assay [3] relates to Radical scavenging activity. Briefly: Antioxidant activity assessed as DPPH radical scavenging activity at 0.05 mM after 60 mins. The assay is classed as functional.
Assay [4] has as its system Radical scavenging activity. Briefly: Antioxidant activity assessed as DPPH radical scavenging activity at 0.01 mM after 20 mins. The assay is classed as functional.
Assay [5] deals with Radical scavenging activity. Briefly: Antioxidant activity assessed as DPPH radical scavenging activity at 0.01 mM after 60 mins. The class given is functional.
Assay [6] is described as follows: Antioxidant activity assessed as inhibition of AAPH-induced lipid peroxidation at 100 uM. The class given is functional.
For the next assay, the system named is Rattus norvegicus. Briefly: Antiinflammatory activity in rat assessed as inhibition of carrageenan-induced paw edema at 0.01 mmol/kg, ip after 3.5 hrs. The class given is functional.
The nature of assay [7]: Inhibition of soybean lipoxygenase by UV absorbance based assay. Details: species or system Glycine max.
A further assay concerns Glycine max. Briefly: Inhibition of soybean lipoxygenase at 100 uM by UV absorbance based assay.

For the compound `O=c1ccc2ccc(O)cc2o1` [UMBELLIFERONE], the inhibition (in general, how much of the control response was suppressed) in assay [1] was 65%; in assay [6], 83%. In addition, the result (in [2]; in assay [3]; with Rattus norvegicus) was inactive. Moreover, the Activity in assay [4] and in [5] was 2% throughout. In addition, half-maximal inhibition in assay [7] (IC50) required 43 µM.

On to `Cc1c(O)ccc2ccc(=O)oc12`, for which the values for the inhibition (in [1]; in the assay with Glycine max) were 60% and 25%, respectively. In addition, the Activity was 14% in assay [2], 15% in assay [3], 26% in assay [4] and 27% in [5]. Moreover, the inhibition entry in assay [6] is “inactive”.

`Cc1cc2oc(=O)ccc2cc1O`: the inhibition in assay [1] amounted to 54%; in assay [6] it was 24%; with Glycine max it was 3%. Moreover, the Activity in assay [2] amounted to 22%; in assay [3] it was 20%; in [4] it was 51%; in assay [5] it was 51%.

As to `Cc1ccc2ccc(=O)oc2c1`, the result in assay [2] and in assay [3] was inactive. Besides, the Activity in [4] and in assay [5] was 2% each time. For the same compound, in the assay on Glycine max, the inhibition stood at 89%. For the same compound, in the assay with Rattus norvegicus, the inhibition in vivo (commonly the share of the control response that was lost under treatment) at 10 µmol/kg worked out at 55%.

Turning to `O=c1ccc2c(o1)c(O)cc1ccccc12`, the results for the inhibition in [1] and in assay [6] were 79% and 100%, respectively. In addition, the Activity stood at 22% in [2], 20% in assay [3], 46% in [4] and 54% in [5]. Besides, the inhibition entry in the assay on Glycine max is “inactive”. The inhibition in vivo at 10 µmol/kg in the assay on Rattus norvegicus turned out to be 18%.

Take `O=C(O)/C=C/c1ccc(O)c(O)c1` [CAFFEIC ACID]: the inhibition in assay [1] was found to be 71%. Besides, in assay [7], the midpoint of inhibition, the IC50, lay at 600 µM.

With `O=c1ccc2ccccc2o1` [COUMARIN], the outcome in [2] and in assay [3] was inactive. The Activity in assay [4] turned out to be 5%; in assay [5], 21%. This compound also returned an inhibition in the assay on Glycine max of 15%. For the same compound, the inhibition in vivo at 10 µmol/kg in the assay on Rattus norvegicus worked out at 30%.

Take `Cc1c(C)c2c(c(C)c1O)CCC(C)(C(=O)O)O2` (stereo not drawn): the inhibition in [6] worked out at 73%.

`O=c1ccc2c(cc(O)c3ccccc32)o1`: the inhibition entry in assay [1] was “inactive”. For the same compound, the Activity in [2] was found to be 28%; in assay [3] it was 31%; in [4], 55%; in [5], 51%. Moreover, the inhibition in assay [6] is 57%; with Glycine max, 38%. Besides, in the assay with Rattus norvegicus, the inhibition in vivo at 10 µmol/kg is 15%.

As to `Cc1cc(O)cc2oc(=O)ccc12`, the values for the inhibition (in [1]; in assay [6]; with Glycine max) were 61%, 30% and 27%, respectively. Also, the Activity came out at 43% in [2], 43% in assay [3], 31% in assay [4] and 54% in assay [5].

For `O=c1ccc2cc(O)c3c(c2o1)CCCC3`, the inhibition in assay [1] is 68%; in assay [6], 42%; in the assay with Glycine max it was 12%. In addition, the Activity in assay [2] was 35%; in [3], 38%; in assay [4], 44%; in assay [5], 40%.

As to `COc1ccc2c(c1)c(CC(=O)O)c(C)n2C(=O)c1ccc(Cl)cc1` [INDOMETHACIN], the inhibition in vivo at 10 µmol/kg in the assay with Rattus norvegicus was 47%.

Regarding `O=c1ccc2cccc(O)c2o1` [8-Hydroxycoumarin], the inhibition came to 56% in [1], 28% in assay [6] and 37% in the assay on Glycine max. The Activity in assay [2] amounted to 31%; in [3], 30%; in assay [4], 33%; in [5] it was 32%. Besides, in the assay with Rattus norvegicus, the inhibition in vivo at 10 µmol/kg is 18%.

Take `O=c1ccc2cc(O)c3ccccc3c2o1`: the figures for the inhibition in [1] and in [6] were 61% and 100%, respectively. Also, the Activity worked out at 65% in [2], 72% in assay [3], 77% in assay [4] and 89% in assay [5]. The inhibition in vivo at 10 µmol/kg in the assay on Rattus norvegicus stood at 39%. In addition, the IC50 (commonly the concentration at which inhibition is half-maximal) in [7] stood at 100 µM.

With `CC(Cc1ccc(O)c(O)c1)C(C)Cc1ccc(O)c(O)c1` (stereo not drawn), the Activity in [2] was determined as 68%; in assay [3], 72%; in [4], 81%; in [5], 83%.
